Results taken from PMC10882719 (Frontiers in Neuroscience, 2024).
Like-named read-outs stand apart in the source and are kept apart here.

Experiments:
Assay type in all cases: cell-based
168 GPCRs [1] = target: T1, 168 GPCRs (Homo sapiens, UniProt P25101); conditions: EDNRA
T1 construct: host or cells: PathHunter cell lines
T1 sequence (P25101 21-427): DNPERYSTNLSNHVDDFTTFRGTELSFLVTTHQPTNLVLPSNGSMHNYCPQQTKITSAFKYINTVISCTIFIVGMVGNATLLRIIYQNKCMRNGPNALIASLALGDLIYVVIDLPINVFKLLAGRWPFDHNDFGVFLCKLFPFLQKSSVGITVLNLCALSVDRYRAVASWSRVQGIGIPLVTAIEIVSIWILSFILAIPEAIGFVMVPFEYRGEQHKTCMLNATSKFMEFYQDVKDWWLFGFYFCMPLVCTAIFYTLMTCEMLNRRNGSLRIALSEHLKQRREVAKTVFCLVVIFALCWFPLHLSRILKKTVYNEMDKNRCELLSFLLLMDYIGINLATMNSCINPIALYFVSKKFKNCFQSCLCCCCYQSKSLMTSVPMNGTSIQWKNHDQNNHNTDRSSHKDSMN
Experimental: (§1) Studies were performed at Eurofins DiscoverX Corporation (Fremont, CA) using the GPCRmax assay according to the manufacturer’s protocols. […] Activity greater than 30% typically indicates agonist activity and inhibition greater than 50% indicates antagonist activity. This assay uses enzyme fragment complementation with […] as the functional reporter. When a GPCR is activated, […] is recruited and the reporter is detectable. GPCRmax offers a high-throughput screen of 168 GPCRs for agonist or antagonist activity. Briefly, PathHunter cell lines were propagated, seeded into 384-well microplates and incubated at 37°C. […] Microplates were read following signal generation with a PerkinElmer Envision™ instrument for chemiluminescent signal detection. Compound activity was analyzed using CBIS data analysis suite (ChemInnovation, CA) to determine raw values (RLU). For agonist mode assay, percentage activity was calculated using the following formula: % Activity =100% × (mean RLU of test sample - mean RLU of vehicle control) / (mean MAX control ligand - mean RLU of vehicle control). For antagonist mode assay, percentage inhibition was calculated using the following formula: % Inhibition =100% × (1 - (mean RLU of test sample - mean RLU of vehicle control) / (mean RLU of EC80 control - mean RLU of vehicle control)).

168 GPCRs [2] = target: T2, 168 GPCRs (Homo sapiens, UniProt P55085)
T2 construct: host or cells: PathHunter cell lines
T2 sequence (P55085 26-397): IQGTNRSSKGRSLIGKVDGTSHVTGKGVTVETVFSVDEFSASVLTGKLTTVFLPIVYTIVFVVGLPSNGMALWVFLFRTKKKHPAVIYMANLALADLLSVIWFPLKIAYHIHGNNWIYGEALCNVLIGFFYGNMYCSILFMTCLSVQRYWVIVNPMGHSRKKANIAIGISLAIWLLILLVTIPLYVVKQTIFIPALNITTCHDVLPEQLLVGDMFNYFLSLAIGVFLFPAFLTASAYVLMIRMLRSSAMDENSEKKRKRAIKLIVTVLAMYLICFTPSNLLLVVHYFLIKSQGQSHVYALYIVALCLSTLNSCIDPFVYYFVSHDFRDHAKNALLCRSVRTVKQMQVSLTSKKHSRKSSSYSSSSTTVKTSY
Experimental: as §1

168 GPCRs [3] = target: T3, 168 GPCRs (Homo sapiens, UniProt P21918)
T3 construct: host or cells: PathHunter cell lines
T3 sequence (P21918 whole entry): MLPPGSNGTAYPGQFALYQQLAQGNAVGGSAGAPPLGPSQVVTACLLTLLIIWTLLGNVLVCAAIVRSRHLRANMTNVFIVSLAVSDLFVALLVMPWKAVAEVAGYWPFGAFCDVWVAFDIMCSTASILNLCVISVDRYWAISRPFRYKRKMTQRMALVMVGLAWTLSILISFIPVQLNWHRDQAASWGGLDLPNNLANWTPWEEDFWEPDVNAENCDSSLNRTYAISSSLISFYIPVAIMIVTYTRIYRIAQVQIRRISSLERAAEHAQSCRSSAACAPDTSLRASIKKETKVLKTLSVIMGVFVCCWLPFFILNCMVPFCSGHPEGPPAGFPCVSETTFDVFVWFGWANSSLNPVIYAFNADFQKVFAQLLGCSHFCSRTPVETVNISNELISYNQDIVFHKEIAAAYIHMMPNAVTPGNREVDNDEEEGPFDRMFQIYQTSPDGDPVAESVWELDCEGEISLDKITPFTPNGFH
Experimental: as §1

168 GPCRs [4] = target: T4, 168 GPCRs (Homo sapiens, UniProt Q96P65)
T4 construct: host or cells: PathHunter cell lines
T4 sequence (Q96P65 1-431): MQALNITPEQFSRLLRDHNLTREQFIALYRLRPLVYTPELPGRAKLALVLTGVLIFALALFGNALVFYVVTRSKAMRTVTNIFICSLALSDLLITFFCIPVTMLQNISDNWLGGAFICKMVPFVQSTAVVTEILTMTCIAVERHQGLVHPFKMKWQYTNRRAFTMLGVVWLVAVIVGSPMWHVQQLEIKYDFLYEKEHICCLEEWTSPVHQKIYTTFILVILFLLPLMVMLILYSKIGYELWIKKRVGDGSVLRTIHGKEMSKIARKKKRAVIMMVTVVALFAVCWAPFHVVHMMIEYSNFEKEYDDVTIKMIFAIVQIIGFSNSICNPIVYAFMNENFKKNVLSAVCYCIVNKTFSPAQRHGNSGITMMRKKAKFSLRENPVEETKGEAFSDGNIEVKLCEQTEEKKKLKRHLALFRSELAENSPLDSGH
Experimental: as §1

168 GPCRs [5] = target: T5, 168 GPCRs (Homo sapiens, UniProt P43220); conditions: GLP1R
T5 construct: host or cells: PathHunter cell lines
T5 sequence (P43220 24-463): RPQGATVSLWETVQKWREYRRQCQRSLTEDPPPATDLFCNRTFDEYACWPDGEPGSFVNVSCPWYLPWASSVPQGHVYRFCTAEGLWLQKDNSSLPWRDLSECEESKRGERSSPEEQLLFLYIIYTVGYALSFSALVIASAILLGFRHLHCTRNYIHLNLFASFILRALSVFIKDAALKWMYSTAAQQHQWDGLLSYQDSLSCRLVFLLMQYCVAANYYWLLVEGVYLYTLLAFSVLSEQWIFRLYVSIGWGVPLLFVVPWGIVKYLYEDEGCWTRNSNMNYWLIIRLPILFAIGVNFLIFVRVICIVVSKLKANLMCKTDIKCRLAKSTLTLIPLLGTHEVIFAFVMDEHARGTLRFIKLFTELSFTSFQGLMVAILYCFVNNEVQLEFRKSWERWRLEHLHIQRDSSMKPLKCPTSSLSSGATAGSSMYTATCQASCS
Experimental: as §1

168 GPCRs [6] = target: T6, 168 GPCRs (Homo sapiens, UniProt Q8TDS5); conditions: OXER1
T6 construct: host or cells: PathHunter cell lines
T6 sequence (Q8TDS5 whole entry): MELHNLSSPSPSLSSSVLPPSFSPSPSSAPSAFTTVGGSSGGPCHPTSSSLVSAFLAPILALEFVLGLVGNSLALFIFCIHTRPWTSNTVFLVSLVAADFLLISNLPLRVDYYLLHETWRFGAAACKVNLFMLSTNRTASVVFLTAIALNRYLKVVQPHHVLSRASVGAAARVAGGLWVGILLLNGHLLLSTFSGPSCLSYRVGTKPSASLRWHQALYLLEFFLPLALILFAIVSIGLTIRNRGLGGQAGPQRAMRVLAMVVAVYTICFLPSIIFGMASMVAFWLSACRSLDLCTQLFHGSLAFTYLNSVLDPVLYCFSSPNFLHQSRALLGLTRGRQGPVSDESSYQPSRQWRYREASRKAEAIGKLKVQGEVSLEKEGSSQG
Experimental: as §1

168 GPCRs [7] = target: T7, 168 GPCRs (Homo sapiens, UniProt P25106)
T7 construct: host or cells: PathHunter cell lines
T7 sequence (P25106 whole entry): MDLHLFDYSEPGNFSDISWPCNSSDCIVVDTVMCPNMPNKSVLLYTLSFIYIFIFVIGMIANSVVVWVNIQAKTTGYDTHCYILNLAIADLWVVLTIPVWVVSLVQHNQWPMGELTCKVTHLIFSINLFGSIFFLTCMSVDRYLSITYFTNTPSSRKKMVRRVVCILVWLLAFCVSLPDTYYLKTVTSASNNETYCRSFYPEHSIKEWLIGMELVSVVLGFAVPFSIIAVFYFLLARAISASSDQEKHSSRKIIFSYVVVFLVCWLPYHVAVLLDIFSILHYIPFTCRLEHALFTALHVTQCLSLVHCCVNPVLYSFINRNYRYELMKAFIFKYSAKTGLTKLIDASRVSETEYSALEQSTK
Experimental: as §1

168 GPCRs [8] = target: T8, 168 GPCRs (Homo sapiens, UniProt P25929); conditions: NPY1R
T8 construct: host or cells: PathHunter cell lines
T8 sequence (P25929 1-384): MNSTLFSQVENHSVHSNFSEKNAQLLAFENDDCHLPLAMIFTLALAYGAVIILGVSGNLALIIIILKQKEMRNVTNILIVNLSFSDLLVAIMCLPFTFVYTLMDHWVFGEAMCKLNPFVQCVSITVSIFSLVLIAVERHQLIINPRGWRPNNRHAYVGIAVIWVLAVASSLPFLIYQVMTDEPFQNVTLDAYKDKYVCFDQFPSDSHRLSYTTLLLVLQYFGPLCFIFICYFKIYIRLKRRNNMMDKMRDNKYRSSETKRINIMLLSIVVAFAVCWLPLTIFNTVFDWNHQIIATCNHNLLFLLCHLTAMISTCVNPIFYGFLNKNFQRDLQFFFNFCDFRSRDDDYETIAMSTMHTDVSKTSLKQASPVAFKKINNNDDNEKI
Experimental: as §1

| SMILES | % Agonist Activity (168 GPCRs [1]; 1 uM) | % Antagonist Activity (168 GPCRs [1]; 1 uM) | % Agonist Activity (168 GPCRs [1]; 10 uM) | % Antagonist Activity (168 GPCRs [1]; 10 uM) | % Agonist Activity (168 GPCRs [2]; F2RL1, 1 uM) | % Antagonist Activity (168 GPCRs [2]; F2RL1, 1 uM) | % Agonist Activity (168 GPCRs [2]; F2RL1, 10 uM) | % Antagonist Activity (168 GPCRs [2]; F2RL1, 10 uM) | % Agonist Activity (168 GPCRs [3]; DRD5, 1 uM) | % Antagonist Activity (168 GPCRs [3]; DRD5, 1 uM) | % Agonist Activity (168 GPCRs [3]; DRD5, 10 uM) | % Antagonist Activity (168 GPCRs [3]; DRD5, 10 uM) | % Agonist Activity (168 GPCRs [4]; GPR103, 1 uM) | % Antagonist Activity (168 GPCRs [4]; GPR103, 1 uM) | % Agonist Activity (168 GPCRs [4]; GPR103, 10 uM) | % Antagonist Activity (168 GPCRs [4]; GPR103, 10 uM) | % Agonist Activity (168 GPCRs [5]; 1 uM) | % Antagonist Activity (168 GPCRs [5]; 1 uM) | % Agonist Activity (168 GPCRs [5]; 10 uM) | % Antagonist Activity (168 GPCRs [5]; 10 uM) | further results |
| --- | --- | --- | --- | --- | --- | --- | --- | --- | --- | --- | --- | --- | --- | --- | --- | --- | --- | --- | --- | --- | --- |
| CNC(C)Cc1ccc2c(c1)OCO2 (stereo not shown) [MDMA, 3,4-Methylenedioxy methamphetamine, reference compound] | -1.1% | 2.5% | -1.9% | 4.6% | 16.4% | 9.6% | 1.8% | 10.9% | 1.7% | 10.8% | 1.4% | 10.5% | -4.2% | -15.2% | -6.5% | -17.1% | -0.4% | 9.5% | -0.2% | 12.9% | % Agonist Activity (168 GPCRs [6]; Conc 1 uM): 6.3%; % Antagonist Activity (168 GPCRs [6]; Conc 1 uM): -7.5%; % Agonist Activity (168 GPCRs [6]; Conc 10 uM): 4.8%; % Antagonist Activity (168 GPCRs [6]; Conc 10 uM): -1.7%; % Agonist Activity (168 GPCRs [7]; CXCR7, 1 uM): -1.3%; % Antagonist Activity (168 GPCRs [7]; CXCR7, 1 uM): 5.3%; % Agonist Activity (168 GPCRs [7]; CXCR7, 10 uM): 0.5%; % Antagonist Activity (168 GPCRs [7]; CXCR7, 10 uM): 8%; % Agonist Activity (168 GPCRs [8]; Conc 1 uM): 1.3%; % Antagonist Activity (168 GPCRs [8]; Conc 1 uM): -3.9%; % Agonist Activity (168 GPCRs [8]; Conc 10 uM): 0.6%; % Antagonist Activity (168 GPCRs [8]; Conc 10 uM): 2.2% |
| CNC(C)C(=O)c1ccc2c(c1)OCO2 (stereo not shown) [methylone] | 0.3% | -2.4% | 1.4% | -11.3% | -0.6% | -26.8% | 3.8% | -16.2% | -0.1% | -5.9% | -0.2% | -2.6% | 0.8% | 4.1% | 3.1% | 7% | -0.3% | 3.4% | -0.1% | -0.9% | % Agonist Activity (168 GPCRs [6]; Conc 1 uM): 3.2%; % Antagonist Activity (168 GPCRs [6]; Conc 1 uM): 2.9%; % Agonist Activity (168 GPCRs [6]; Conc 10 uM): -3.7%; % Antagonist Activity (168 GPCRs [6]; Conc 10 uM): 7.6%; % Agonist Activity (168 GPCRs [7]; CXCR7, 1 uM): -1.3%; % Antagonist Activity (168 GPCRs [7]; CXCR7, 1 uM): 14.1%; % Agonist Activity (168 GPCRs [7]; CXCR7, 10 uM): -0.8%; % Antagonist Activity (168 GPCRs [7]; CXCR7, 10 uM): 7.3%; % Agonist Activity (168 GPCRs [8]; Conc 1 uM): -2.2%; % Antagonist Activity (168 GPCRs [8]; Conc 1 uM): 0.2%; % Agonist Activity (168 GPCRs [8]; Conc 10 uM): -4.9%; % Antagonist Activity (168 GPCRs [8]; Conc 10 uM): 5.4% |
